Measured values reported in the supplement of paper PMC10307832.

Tests used:
Assay in all cases: relative viability (nuclei count vs DMSO), 5 days (fraction); higher = more cells survive
NCI-H3122 = system: NCI-H3122
Method in brief: (§1)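 Each reported value is a median over duplicate plates. It expresses relative viability: treated-well nuclei count divided by vehicle-well nuclei count. Lung cancer cell lines in 1536-well plates were dosed by pin tool a day after seeding, alone with one drug or with a fixed anchor-drug dose plus five library-drug doses (not always all listed) in √10 steps, and nuclei were counted after 5 days.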

HARA = system: HARA
Method in brief: as §1

NCI-H838 = system: NCI-H838
Method in brief: as §1

CAL-12T = system: CAL-12T
Method in brief: as §1

LU99A = system: LU99A
Method in brief: as §1

NCI-H2009 = system: NCI-H2009
Method in brief: as §1

COR-L23 = system: COR-L23
Method in brief: as §1

NCI-H441 = system: NCI-H441
Method in brief: as §1

NCI-H727 = system: NCI-H727
Method in brief: as §1

LK-2 = system: LK-2
Method in brief: as §1

EKVX = system: EKVX
Method in brief: as §1

ABC-1 = system: ABC-1
Method in brief: as §1

NCI-H1666 = system: NCI-H1666
Method in brief: as §1

201T = system: 201T
Method in brief: as §1

COR-L 105 = system: COR-L 105
Method in brief: as §1

NCI-H661 = system: NCI-H661
Method in brief: as §1

PC-14 = system: PC-14
Method in brief: as §1

HCC-366 = system: HCC-366
Method in brief: as §1

NCI-H1437 = system: NCI-H1437
Method in brief: as §1

BEN = system: BEN
Method in brief: as §1

SMILES: Oc1nc(-c2ccc(C(F)(F)F)cc2)nc2c1CSCC2 [XAV939] + C[C@]1(O)C[C@@H](c2nc(-c3ccc4ccc(-c5ccccc5)nc4c3)c3c(N)nccn32)C1 [Linsitinib] (partner 1 µM)
- relative viability (NCI-H3122; first compound 0.08 µM): 1.02
- relative viability (NCI-H3122; first compound 0.253 µM): 0.986
- relative viability (NCI-H3122; first compound 0.8 µM): 0.951
- relative viability (NCI-H3122; first compound 2.53 µM): 0.557
- relative viability (HARA; first compound 0.08 µM): 1.25
- relative viability (HARA; first compound 0.253 µM): 0.414
- relative viability (HARA; first compound 0.8 µM): 0.779
- relative viability (HARA; first compound 2.53 µM): 0.956
- relative viability (NCI-H838; first compound 0.08 µM): 1.02
- relative viability (NCI-H838; first compound 0.253 µM): 0.901
- relative viability (NCI-H838; first compound 0.8 µM): 0.839
- relative viability (NCI-H838; first compound 2.53 µM): 0.719
- relative viability (CAL-12T; first compound 0.08 µM): 0.87
- relative viability (CAL-12T; first compound 0.253 µM): 0.809
- relative viability (CAL-12T; first compound 0.8 µM): 0.667
- relative viability (CAL-12T; first compound 2.53 µM): 0.667
- relative viability (LU99A; first compound 0.08 µM): 0.556
- relative viability (LU99A; first compound 0.253 µM): 0.446
- relative viability (LU99A; first compound 0.8 µM): 0.505
- relative viability (LU99A; first compound 2.53 µM): 0.44
- relative viability (NCI-H2009; first compound 0.08 µM): 1.19
- relative viability (NCI-H2009; first compound 0.253 µM): 0.904
- relative viability (NCI-H2009; first compound 0.8 µM): 1.17
- relative viability (NCI-H2009; first compound 2.53 µM): 1.09
- relative viability (COR-L23; first compound 0.08 µM): 0.962
- relative viability (COR-L23; first compound 0.253 µM): 0.785
- relative viability (COR-L23; first compound 0.8 µM): 0.969
- relative viability (COR-L23; first compound 2.53 µM): 0.809
- relative viability (NCI-H441; first compound 0.08 µM): 0.675
- relative viability (NCI-H441; first compound 0.253 µM): 0.413
- relative viability (NCI-H441; first compound 0.8 µM): 0.507
- relative viability (NCI-H441; first compound 2.53 µM): 0.507
- relative viability (NCI-H727; first compound 0.08 µM): 0.315
- relative viability (NCI-H727; first compound 0.253 µM): 0.246
- relative viability (NCI-H727; first compound 0.8 µM): 0.233
- relative viability (NCI-H727; first compound 2.53 µM): 0.372
- relative viability (LK-2; first compound 0.08 µM): 0.514
- relative viability (LK-2; first compound 0.253 µM): 0.499
- relative viability (LK-2; first compound 0.8 µM): 0.42
- relative viability (LK-2; first compound 2.53 µM): 0.457
- relative viability (EKVX; first compound 0.08 µM): 1.07
- relative viability (EKVX; first compound 0.253 µM): 0.776
- relative viability (EKVX; first compound 0.8 µM): 0.831
- relative viability (EKVX; first compound 2.53 µM): 0.623
- relative viability (ABC-1; first compound 0.08 µM): 0.915
- relative viability (ABC-1; first compound 0.253 µM): 0.733
- relative viability (ABC-1; first compound 0.8 µM): 0.809
- relative viability (ABC-1; first compound 2.53 µM): 0.315
- relative viability (NCI-H1666; first compound 0.08 µM): 0.816
- relative viability (NCI-H1666; first compound 0.253 µM): 0.598
- relative viability (NCI-H1666; first compound 0.8 µM): 0.712
- relative viability (NCI-H1666; first compound 2.53 µM): 0.568
- relative viability (201T; first compound 0.08 µM): 0.937
- relative viability (201T; first compound 0.253 µM): 0.8
- relative viability (201T; first compound 0.8 µM): 0.857
- relative viability (201T; first compound 2.53 µM): 0.873
- relative viability (COR-L 105; first compound 0.08 µM): 1
- relative viability (COR-L 105; first compound 0.253 µM): 0.98
- relative viability (COR-L 105; first compound 0.8 µM): 0.868
- relative viability (COR-L 105; first compound 2.53 µM): 0.561
- relative viability (NCI-H661; first compound 0.08 µM): 0.653
- relative viability (NCI-H661; first compound 0.253 µM): 0.568
- relative viability (NCI-H661; first compound 0.8 µM): 0.649
- relative viability (NCI-H661; first compound 2.53 µM): 0.35
- relative viability (PC-14; first compound 0.08 µM): 0.954
- relative viability (PC-14; first compound 0.253 µM): 0.831
- relative viability (PC-14; first compound 0.8 µM): 1.04
- relative viability (PC-14; first compound 2.53 µM): 0.844
- relative viability (HCC-366; first compound 0.08 µM): 0.626
- relative viability (HCC-366; first compound 0.253 µM): 0.5
- relative viability (HCC-366; first compound 0.8 µM): 0.605
- relative viability (HCC-366; first compound 2.53 µM): 0.596
- relative viability (NCI-H1437; first compound 0.08 µM): 1.21
- relative viability (NCI-H1437; first compound 0.253 µM): 0.878
- relative viability (NCI-H1437; first compound 0.8 µM): 0.873
- relative viability (NCI-H1437; first compound 2.53 µM): 0.477
- relative viability (BEN; first compound 0.08 µM): 1.17
- relative viability (BEN; first compound 0.253 µM): 0.894
- relative viability (BEN; first compound 0.8 µM): 0.934
